Our source for the IC50 values is patent publication US12053473B2, “Benzylamino substituted quinazolines and derivatives as SOS1 inhibitors” (priority 2016, dated 2024).

One test concerns the target SOS1 and KRAS G12D (protein-protein interaction) (Homo sapiens, UniProt Q07889). Briefly: KRAS::SOS1 AlphaScreen binding assay.
Conditions: not given
As to the method: KRAS::SOS1 AlphaScreen Binding Assay
Low IC50 values are indicative of high potency of the SOS1 inhibitor compound in this assay setting:
10 nM (final assay concentration) KRAS G12D, 10 μM (final assay concentration) GDP and 5 nM (final assay concentration) GST-SOS1 are mixed in assay buffer prior to use and kept at room temperature.
AlphaLSA Glutathione Acceptor Beads and AlphaScreen Streptavidin Donor Beads are mixed in assay buffer at a concentration of 10 μg/mL (final assay concentration) each prior to use and kept at room temperature.
Compounds are diluted to a final start concentration of 100 μM and are tested in duplicate. […] For compound a start concentration of 100 μM, 150 nL of compound solution is transferred per well in 11 concentrations in duplicate with serial 1:5 dilutions.
The assay is run using a fully automated robotic system in a darkened room below 100 Lux. 10 μL of KRAS::SOS1 GDP mix is added into columns 1-24 to the 150 nL of compound solution (final dilution in the assay 1:100, final DMSO concentration 1%).
After a 30 minute incubation time 5 μL of bead mix is added into columns 1-23. Plates are kept at room temperature in a darkened incubator. After a further 60 minute incubation, the signal is measured using a PerkinElmer Envision HTS Multilabel Reader using the AlphaScreen specifications from PerkinElmer. Each plate contains the following controls: • diluted DMSO+KRAS::SOS1 GDP mix+bead mix • diluted DMSO+KRAS::SOS1 GDP mix Result Calculation:
IC50 values are calculated and analyzed using a 4 parametric logistic model.
The term IC50 denotes the concentration that inhibits the measured activity by half. `Cc1nc(N[C@H](C)c2cccc(C(F)(F)F)c2)c2cc([C@]3(O)CC[C@@H](O)CC3)ccc2n1` [I-60] displayed an IC50 of 10 nM.

`Cc1nc(N[C@H](C)c2cccc(C(F)(F)F)c2)c2cc([C@]3(O)CC[C@H](O)CC3)ccc2n1` [I-59] displayed an IC50 of 20 nM.

In the case of `COc1cc2nc(C)nc(N[C@H](C)c3cccc(C(F)(F)F)c3)c2cc1[C@]1(O)CC[C@@H](C(=O)N(C)CCO)CC1` [I-75], the IC50 came out at 7 nM.

The same test, now with this note: assay buffer with 100 μM EDTA (values marked with an asterisk); read-out: IC50 (SOS1).
On to `Cc1nc(N[C@H](C)c2cccc(C(F)(F)F)c2)c2cc(-c3cnn(C4CCNCC4)c3)ccc2n1` [I-168], for which the IC50 was 48 nM.

In the case of `Cc1cccc([C@@H](C)Nc2nc(C)nc3ccc(C4CC[S+]([O-])CC4)cc23)c1` (stereo partly shown) [I-160], the IC50 was determined as 22 nM.

Staying with this test, now noted: assay buffer without EDTA (values not marked with an asterisk); read-out: IC50 (SOS1).
Regarding `Cc1cccc([C@@H](C)Nc2nc(C)nc3cc(C)c(C4CCNCC4)cc23)c1` [I-176], the IC50 came to 46 nM. Regarding `COCC(=O)N1CCC(c2cc3c(N[C@H](C)c4cccc(C(F)(F)CO)c4)nc(C)nc3cc2OC)CC1` [I-165], the IC50 worked out at 2 nM. On to `COc1cc2nc(C)nc(N[C@H](C)c3cccc(C)c3)c2cc1-c1ccc(C(=O)N(C)C)nc1` [I-190], for which the IC50 was determined as 34 nM.

For the molecule `Cc1nc(N[C@H](C)c2cccc(C(F)(F)F)c2)c2cc(C3CCN(CC(=O)O)CC3)ccc2n1` [I-293], the IC50 turned out to be 11 nM. Turning to `Cc1nc(N[C@H](C)c2cc(N)cc(C(F)(F)F)c2)c2cc(O[C@H]3CCOC3)c(C)cc2n1` [I-10], the IC50 is 7 nM. Still for that read-out and setting: the result for `COc1cc2nc(C)nc(N[C@H](C)c3cccc(C4(O)COC4)c3)c2cc1C1CCN(C(C)=O)CC1` [I-167] reads 18 nM. On the same count and under the same terms, to `COc1cc2nc(C)nc(N[C@H](C)c3cccc(C(F)(F)F)c3F)c2cc1C1(O)CCN(C(C)=O)CC1` [I-45] belongs 2 nM. Consider `CC(=O)N1CCC(O)(c2ccc3nc(C)nc(N[C@H](C)c4cccc(C)c4)c3c2)CC1` [I-52], for which the IC50 came to 14 nM. Take `Cc1cccc([C@@H](C)Nc2nc(C)nc3c(C)cc(C4CCN(C(C)C)CC4)cc23)c1` [I-289]: the IC50 is 18 nM. Turning to `COc1cc2nc(C)nc(N[C@H](C)c3cccc(C)c3)c2cc1O[C@H]1CCN(C(C)=O)C1` [I-4], the IC50 came out at 30 nM. As to `CC(=O)N1CC[C@H](Oc2cc3c(N[C@H](C)c4cc(N)cc(C(F)(F)F)c4)nc(C)nc3cc2C)C1` [I-9], the IC50 turned out to be 3 nM.

As to `CC(=O)N1CCC2(CC1)CC(O)(c1ccc3nc(C)nc(N[C@H](C)c4cccc(C(F)(F)F)c4)c3c1)C2` [I-51], the IC50 was 23 nM. Take `Cc1nc(N[C@H](C)c2cc(N)cc(C(F)(F)F)c2)c2cc(O[C@H]3CCN(C(=O)C4CC4)C3)c(C)cc2n1` [I-54]: the IC50 came out at 4 nM.

Consider `CCC(=O)N1CC[C@H](Oc2cc3c(N[C@H](C)c4cc(N)cc(C(F)(F)F)c4)nc(C)nc3cc2C)C1` [I-53], for which the IC50 turned out to be 3 nM. `Cc1nc(N[C@H](C)c2cc(N)cc(C(F)(F)F)c2)c2cc([C@H]3CC[C@H](O)CC3)ccc2n1` [I-65]: the IC50 turned out to be 8 nM.

The test is the same for the next values; noted with them: read-out: IC50 (SOS1).
`Cc1nc(N[C@H](C)c2cc(N)cc(C(F)(F)F)c2)c2cc([C@H]3CC[C@@H](C(=O)N(C)C[C@H](C)O)CC3)ccc2n1` [I-255]: the IC50 came out at 8 nM.

`COCC(=O)N1CCC(c2cc3c(N[C@H](C)c4cc(N)cc(C(F)(F)F)c4F)nc(C)nc3cc2OC)CC1` [I-307]: the half-maximal inhibitory concentration (IC50) came to 3 nM. On to `COCC(=O)N1CC=C(c2cc3c(N[C@H](C)c4cccc(C(F)(F)CO)c4)nc(C)nc3cc2OC)CC1` [I-286], for which the IC50 came to 2 nM. Take `Cc1nc(N[C@H](C)c2cc(N)cc(C(F)(F)F)c2)c2cc([C@H]3CC[C@H](C(=O)N(C)C)CC3)cc(C)c2n1` [I-363]: the IC50 worked out at 4 nM. Turning to `COc1cc2nc(C)nc(N[C@H](C)c3cccc(C(F)(F)F)c3)c2cc1-c1ccc(C(=O)N(C)CCO)cc1` [I-214], the concentration for half-maximal inhibition (IC50) came out at 40 nM.

In the case of `CNC(=O)CC(C)c1cc2c(N[C@H](C)c3cccc(C(F)(F)F)c3)nc(C)nc2cc1C` (stereo partly shown) [I-377], the IC50 was determined as 10 nM. As for `Cc1nc(N[C@H](C)c2cc(N)cc(C(F)(F)F)c2)c2cc([C@H]3CC[C@@H](C(=O)N(C)[C@H]4CCOC4)CC3)ccc2n1` [I-251], the half-inhibitory concentration (IC50) was 10 nM. On the same count and under the same terms, to `CONC(=O)CC(C)c1ccc2nc(C)nc(N[C@H](C)c3cccc(C(F)(F)F)c3)c2c1` (stereo partly shown) [I-376] belongs 34 nM. Turning to `CONC(=O)CC(C)c1cc2c(N[C@H](C)c3cccc(C(F)(F)F)c3)nc(C)nc2cc1OC` (stereo partly shown) [I-382], the IC50 stood at 16 nM. Take `Cc1nc(N[C@H](C)c2cc(N)cc(C(F)(F)F)c2)c2cc([C@H]3CC[C@H](C(=O)N(C)C)CC3)c(C)cc2n1` [I-352]: the IC50 amounted to 2 nM.

As for `Cc1nc(N[C@H](C)c2cccc(C(F)(F)F)c2)c2cc(C3=CCC(C(=O)N4CCN(C)CC4)CC3)ccc2n1` (stereo partly shown) [I-223], the IC50 worked out at 27 nM. Take `COc1cc2nc(C)nc(N[C@H](C)c3cc(N)cc(C(F)(F)F)c3F)c2cc1C1CCN(C(C)=O)CC1` [I-278]: the IC50 was 2 nM. As for `Cc1nc(N[C@H](C)c2cc(N)cc(C(F)(F)F)c2)c2cc([C@H]3CC[C@H](C(=O)N(C)[C@@H]4CCOC4)CC3)ccc2n1` [I-242], the half-maximal inhibitory concentration (IC50) was 5 nM.

As to `Cc1nc(N[C@H](C)c2cc(N)cc(C(F)(F)F)c2C)c2cc(C3CCS(=O)(=O)CC3)ccc2n1` [I-317], the IC50 was determined as 4 nM. Turning to `Cc1nc(N[C@H](C)c2cc(N)cc(C(F)(F)F)c2)c2cc([C@H]3CC[C@@H](C(=O)N4CCN(C)CC4)CC3)cc(C)c2n1` [I-362], the IC50 came out at 8 nM. Take `COc1cc2nc(C)nc(N[C@H](C)c3cc(N)cc(C(F)(F)F)c3)c2cc1[C@H]1CC[C@H](C(=O)N(C)C)CC1` [I-355]: the IC50 is 2 nM. Consider `CCn1ccc(-c2cc3c(N[C@H](C)c4cc(N)cc(C(F)(F)F)c4)nc(C)nc3cc2C)cc1=O` [I-349], for which the IC50 came to 5 nM. Regarding `COc1cc2nc(C)nc(N[C@H](C)c3cccc(C(F)(F)F)c3C)c2cc1[C@H]1CC[C@H](C(=O)N(C)C)CC1` [I-296], the IC50 was 7 nM. As for `COc1cc2nc(C)nc(N[C@H](C)c3cc(N)cc(C(F)(F)F)c3C)c2cc1[C@H]1CC[C@@H](C(=O)N(C)C)CC1` [I-249], the half-maximal inhibitory concentration (IC50) is 38 nM.

As to `COCC(=O)N1CC=C(c2ccc3nc(C)nc(N[C@H](C)c4cc(N)cc(C(F)(F)F)c4)c3c2)CC1` [I-220], the IC50 amounted to 3 nM. For `COc1cc2nc(C)nc(N[C@H](C)c3cccc(C(F)(F)CO)c3)c2cc1C1=CCC(C(=O)N(C)C)CC1` (stereo partly shown) [I-285], the IC50 was found to be 2 nM. The same measure, in the same setting: to `COc1cc2nc(C)nc(N[C@H](C)c3cc(N)cc(C(F)(F)F)c3C)c2cc1[C@H]1CC[C@H](C(=O)N(C)C)CC1` [I-248] belongs 2 nM. For `Cc1nc(N[C@H](C)c2cc(N)cc(C(F)(F)F)c2)c2cc([C@H]3CC[C@@H](C(=O)N4CCOCC4)CC3)ccc2n1` [I-235], the IC50 is 8 nM. Take `COCC(=O)N1CCC(c2cc(C)c3nc(C)nc(N[C@H](C)c4cccc(C)c4)c3c2)CC1` [I-270]: the concentration for half-maximal inhibition (IC50) was 21 nM. On the same count and under the same terms, to `CNC(=O)CC(C)c1ccc2nc(C)nc(N[C@H](C)c3cccc(C(F)(F)F)c3)c2c1` (stereo partly shown) [I-375] belongs 36 nM.

Still in this test, the particulars now being: read-out: IC50 (SOS1); assay buffer without EDTA (values not marked with an asterisk).
With `COc1cc2nc(C)nc(N[C@H](C)c3cccc(C(F)(F)F)c3)c2cc1C1(O)CCC(C(=O)N(C)C[C@H](C)O)CC1` (stereo partly shown) [I-73], the IC50 was 41 nM.

Staying with this test, now noted: values marked with * in the table; read-out: IC50 (SOS1).
For `Cc1cccc([C@@H](C)Nc2nc(C)nc3ccc(-c4ccn(CC(=O)N(C)C)c(=O)c4)cc23)c1` [I-340], the IC50 worked out at 1 nM. As to `COCC(=O)N1CCC(c2ccc3nc(C)nc(N[C@H](C)c4cccc(C)c4)c3c2)CC1` [I-277], the IC50 came out at 22 nM. Consider `Cc1nc(N[C@H](C)c2cccc(C(F)(F)F)c2)c2cc(-c3ccc(=O)[nH]c3)ccc2n1` [I-100], for which the IC50 was 48 nM. Turning to `Cc1nc(N[C@H](C)c2cccc(C(F)(F)F)c2)c2cc(-c3cnn(CC(=O)N(C)C)c3)ccc2n1` [I-85], the IC50 is 41 nM. Consider `Cc1cccc([C@@H](C)Nc2nc(C)nc3ccc(-c4ccn(CC(=O)O)c(=O)c4)cc23)c1` [I-342], for which the IC50 amounted to 48 nM. Regarding `Cc1nc(N[C@H](C)c2cccc(C(F)(F)F)c2)c2cc(-c3cc4n(n3)CCC(=O)N4)ccc2n1` [I-88], the IC50 was found to be 30 nM. Consider `Cc1cccc([C@@H](C)Nc2nc(C)nc3cc(C)c(-c4ccc(=O)n(C)c4)cc23)c1` [I-105], for which the IC50 was 36 nM. For `Cc1cccc([C@@H](C)Nc2nc(C)nc3ccc(-c4ccc(=O)n(CC(=O)N(C)C)c4)cc23)c1` [I-336], the IC50 worked out at 26 nM.

For `COCC(=O)N1CCC(n2cc(-c3ccc4nc(C)nc(N[C@H](C)c5cccc(C)c5)c4c3)cn2)CC1` [I-219], the IC50 amounted to 34 nM.

`Cc1nc(N[C@H](C)c2cccc(C(F)(F)F)c2)c2cc(-c3ccc(=O)n(CC(=O)O)c3)ccc2n1` [I-341]: the IC50 is 35 nM. In the case of `Cc1nc(N[C@H](C)c2cccc(C(F)(F)F)c2)c2cc(-c3ccc(=O)n(CC(N)=O)c3)ccc2n1` [I-343], the IC50 was 40 nM.

Turning to `Cc1nc(N[C@H](C)c2cccc(C(F)(F)F)c2)c2cc(-c3cc4n(n3)CCC(=O)N4)c(C)cc2n1` [I-89], the IC50 amounted to 34 nM.
